For eight compounds, GI50 and TGI results are on record in PubChem BioAssay (NCI).

Values joined by “and” are separate entries in the source; they are usually repeats but may differ in a detail not shown here. Equal entries are not always repeated.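 Tested at 5 concentrations; 48 h exposure; 96-well plates; endpoints linearly interpolated, else capped at highest concentration. Abbreviation: GI50, concentration required for 50% inhibition of growth. TGI: total growth inhibition.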

Among the test systems are HOP-62 NSCLC; SNB-19 CNS; HCT-116 colon; SF-295 CNS; SK-MEL-5 melanoma; HL-60(TB) leukemia; HOP-92 NSCLC; MCF7 breast; SF-268 CNS; OVCAR-4 ovarian.
Assay in all cases: DTP human tumour cell line panel, 48 h

What is called GI50 is the concentration that inhibits growth by half. In general, TGI refers to the concentration at which net growth stops. Lower therefore signals more potent growth arrest. On to `CC1[C@@H]2[C@@H](C=C3C4CCC5Cc6nc7c(nc6C[C@@]5(C)C4C[C@H](O)[C@]32CO)CC2CCC3C4=C[C@H]5O[C@@]6(O[C@@](C)(CO)C[C@@H]6O)C(C)[C@@]5(O)[C@]4(C)[C@@H](O)CC3[C@]2(C)C7)O[C@]12CCC(C)(C)O2` (stereo partly specified), for which the GI50 is below 0.000365 µM with HOP-62 NSCLC; 0.0264 µM in the assay on SNB-19 CNS; below 0.000365 µM with SF-295 CNS; 0.00864 µM in the assay with SK-MEL-5 melanoma; 0.00304 µM with SF-268 CNS. The TGI was 0.603 µM and > 3.65 µM in the assay on SNB-19 CNS; 0.406 µM and 1.42 µM in the assay on HCT-116 colon; 0.134 µM and 0.16 µM in the assay on SK-MEL-5 melanoma; 0.496 µM in the assay on HL-60(TB) leukemia; 0.084 µM in the assay with HOP-92 NSCLC; 0.505 µM in the assay on MCF7 breast. Moreover, the concentration for total growth inhibition (TGI) with SF-268 CNS is 0.945 µM and 0.0972 µM.

As to `COc1cccc([C@H]2CC(=O)c3cc4c(cc3N2)OCO4)c1`, the GI50 was 2.56 µM with HOP-62 NSCLC; 0.0604 µM with HCT-116 colon; 0.0958 µM in the assay with SF-295 CNS; 0.0271 µM in the assay with SK-MEL-5 melanoma; 0.0568 µM in the assay on MCF7 breast; 4.7 µM with SF-268 CNS. For the same compound, the TGI with HOP-62 NSCLC was above 100 µM; in the assay with SNB-19 CNS, 1.81 µM; in the assay with HCT-116 colon, above 100 µM; in the assay on SF-295 CNS, above 100 µM; with SK-MEL-5 melanoma, 0.226 µM; in the assay on HOP-92 NSCLC it was above 100 µM. The TGI in the assay with MCF7 breast, in the assay on OVCAR-4 ovarian and in the assay on SF-268 CNS was above 100 µM each time.

`CC(=O)C1=C(O)C=C2Oc3c(C(=O)/C=C/c4cc(C(F)(F)F)cc(C(F)(F)F)c4)c(O)c(C)c(O)c3[C@]2(C)C1=O`: the GI50 with HOP-62 NSCLC is 1.18 µM; in the assay with SNB-19 CNS, 0.674 µM; in the assay on HCT-116 colon it was 0.401 µM; in the assay on SF-295 CNS, 0.627 µM; with SK-MEL-5 melanoma, 0.444 µM; in the assay on HL-60(TB) leukemia it was 0.401 µM. The GI50 is 0.427 µM with MCF7 breast, 0.815 µM in the assay on OVCAR-4 ovarian and 0.736 µM in the assay on SF-268 CNS. The TGI was determined as 5.17 µM in the assay on HOP-62 NSCLC; 4.89 µM in the assay with SNB-19 CNS; 1.02 µM with HCT-116 colon; 4.76 µM in the assay with SF-295 CNS; 1.27 µM in the assay with SK-MEL-5 melanoma; 1.14 µM with HL-60(TB) leukemia. The TGI in the assay with MCF7 breast stood at 1.7 µM; with OVCAR-4 ovarian, 11.3 µM; in the assay on SF-268 CNS it was 4.04 µM.

With `C=C(CNC(=O)Nc1ccc(-c2ccccc2)cc1)c1ccc(C(=O)Nc2ccccc2N)cc1`, the GI50 in the assay with HOP-62 NSCLC was 49.1 µM; in the assay on SNB-19 CNS it was 98.7 µM; in the assay with HCT-116 colon, above 100 µM; in the assay with SF-295 CNS, above 100 µM; in the assay on SK-MEL-5 melanoma, 94.3 µM; with HL-60(TB) leukemia, 89.7 µM. In addition, the GI50 with MCF7 breast, with OVCAR-4 ovarian and with SF-268 CNS was above 100 µM in each case. Moreover, the TGI with HOP-62 NSCLC, in the assay with SNB-19 CNS, with HCT-116 colon, in the assay with SF-295 CNS, in the assay on SK-MEL-5 melanoma and with HL-60(TB) leukemia was above 100 µM each time. Also, the TGI with MCF7 breast, in the assay with OVCAR-4 ovarian and in the assay with SF-268 CNS was above 100 µM in each case.

As to `NS(=O)(=O)c1ccc(NC(=O)c2ccc(NC3=C(Cl)C(=O)N(Cc4ccccc4)C3=O)cc2)cc1`, the GI50 in the assay with HOP-62 NSCLC is 10.4 µM; with SNB-19 CNS, above 100 µM; in the assay on HCT-116 colon, 2.68 µM; in the assay with SF-295 CNS, 3.03 µM; with SK-MEL-5 melanoma, 10.9 µM; in the assay with HOP-92 NSCLC, 10.9 µM. For the same compound, the GI50 with MCF7 breast was 3.03 µM; in the assay with OVCAR-4 ovarian, 13.7 µM; in the assay on SF-268 CNS it was 7.25 µM. Also, the concentration for total growth inhibition (TGI) with HOP-62 NSCLC was 22.1 µM; in the assay with SNB-19 CNS, above 100 µM; with HCT-116 colon, 10.3 µM; in the assay with SF-295 CNS, 17.8 µM; with SK-MEL-5 melanoma, 24.1 µM; with HOP-92 NSCLC, 31.3 µM. Besides, the TGI in the assay with MCF7 breast, in the assay on OVCAR-4 ovarian and with SF-268 CNS was above 100 µM in each case.

Take `O=[As](O)(O)c1ccc(NCc2ccccc2)cc1`: the TGI in the assay with HOP-62 NSCLC, in the assay on SNB-19 CNS, with HCT-116 colon, with SF-295 CNS, in the assay with SK-MEL-5 melanoma and in the assay with HOP-92 NSCLC was above 100 µM in each case. For the same compound, the TGI in the assay with MCF7 breast, in the assay with OVCAR-4 ovarian and in the assay with SF-268 CNS was above 100 µM in each case.

Regarding `O=C(Nc1ccc(Cl)cc1Cl)c1ccc(NC2=C(Cl)C(=O)N(Cc3ccccc3)C2=O)cc1`, the GI50 with HOP-62 NSCLC is 20.2 µM; in the assay with SNB-19 CNS, 17.9 µM; in the assay with HCT-116 colon it was 34.2 µM; in the assay with SF-295 CNS it was 19.5 µM; in the assay with SK-MEL-5 melanoma it was 20.6 µM; with HL-60(TB) leukemia, 2.5 µM. Moreover, the GI50 is 13.1 µM in the assay on HOP-92 NSCLC, 5.91 µM in the assay on MCF7 breast and 16.5 µM with SF-268 CNS. Besides, the TGI with HOP-62 NSCLC is 40.5 µM; with SNB-19 CNS, 31.9 µM; in the assay with HCT-116 colon, above 100 µM; with SF-295 CNS, 38.1 µM; in the assay on SK-MEL-5 melanoma it was 65.8 µM; in the assay with HL-60(TB) leukemia it was 9.01 µM. Moreover, the TGI with HOP-92 NSCLC came to 26.7 µM; with MCF7 breast, 30.6 µM; with SF-268 CNS it was 36.6 µM.

For the compound `COc1cc(/C(Cl)=C/C=C/C(=O)c2c(C)[n+]([O-])c3ccc(Cl)cc3[n+]2[O-])cc(OC)c1OC`, the GI50 with HOP-62 NSCLC is 7.68 µM; with SNB-19 CNS, 15 µM; in the assay on HCT-116 colon, 2.12 µM; in the assay with SF-295 CNS, 2.77 µM; in the assay on SK-MEL-5 melanoma, 9.44 µM; in the assay with HOP-92 NSCLC it was 4.7 µM. In addition, the results for the GI50 with MCF7 breast, in the assay with OVCAR-4 ovarian and with SF-268 CNS were 1.76 µM, 5.07 µM and 5.54 µM, respectively. For the same compound, the TGI in the assay on HOP-62 NSCLC was 24.4 µM; in the assay with SNB-19 CNS, above 50 µM; in the assay on HCT-116 colon it was 8.98 µM; in the assay on SF-295 CNS it was 20.5 µM; with SK-MEL-5 melanoma, above 50 µM; with HOP-92 NSCLC, 28.1 µM. Besides, the TGI was above 50 µM in the assay on MCF7 breast, above 50 µM with OVCAR-4 ovarian and 14.2 µM in the assay on SF-268 CNS.
